Data taken from BindingDB's records for doi:10.1021/acs.jmedchem.9b00846 (2019).
pIC50: −log10 of the molar value.

Experiments:
[1] = Binding affinity to cereblon in human RV4:11 cells expressing wild type p53 assessed as cell growth inhibition measured after 4 days
[2] = Binding affinity to cereblon in human RV4:11/IRMI-2 cells harboring p53 hotspot mutation Y236H/R249G assessed as cell growth inhibition measured after 4 days
[3] = Binding affinity to cereblon in human MDA-MB-468 cells assessed as reduction in cell growth inhibition measured after 4 days in presence of 10 uM lenalidomide
[4] = Binding affinity to cereblon in human MDA-MB-468 cells assessed as reduction in cell growth inhibition measured after 4 days in presence of 30 uM lenalidomide
[5] = Binding affinity to cereblon in human MDA-MB-468 cells assessed as reduction in cell growth inhibition measured after 4 days in presence of 100 uM lenalidomide
[6] = Binding affinity to cereblon in human MDA-MB-231 cells assessed as reduction in cell growth inhibition measured after 4 days in presence of 10 uM of lenalidomide
[7] = Binding affinity to cereblon in human MDA-MB-231 cells assessed as reduction in cell growth inhibition measured after 4 days in presence of 30 uM of lenalidomide
[8] = Binding affinity to cereblon in human MDA-MB-231 cells assessed as reduction in cell growth inhibition measured after 4 days in presence of 100 uM of lenalidomide
[9] = Binding affinity to cereblon in human RV4:11 cells expressing wild type p53 assessed as reduction in cell growth inhibition measured after 4 days in presence of 10 uM lenalidomide
[10] = Binding affinity to cereblon in human RV4:11 cells expressing wild type p53 assessed as reduction in cell growth inhibition measured after 4 days in presence of 30 uM lenalidomide
[11] = Binding affinity to cereblon in human RV4:11 cells expressing wild type p53 assessed as reduction in cell growth inhibition measured after 4 days in presence of 100 uM lenalidomide
[12] = Binding affinity to cereblon in human RV4:11/IRMI-2 cells harboring p53 hotspot mutation Y236H/R249G assessed as reduction in cell growth inhibition measured after 4 days in presence of 10 uM lenalidomide
[13] = Binding affinity to cereblon in human RV4:11/IRMI-2 cells harboring p53 hotspot mutation Y236H/R249G assessed as reduction in cell growth inhibition measured after 4 days in presence of 30 uM lenalidomide
[14] = Binding affinity to cereblon in human RV4:11/IRMI-2 cells harboring p53 hotspot mutation Y236H/R249G assessed as reduction in cell growth inhibition measured after 4 days in presence of 100 uM lenalidomide
[15] = Binding affinity to cereblon in human MDA-MB-231 cells assessed as cell growth inhibition measured after 4 days
[16] = Binding affinity to cereblon in human MDA-MB-468 cells assessed as cell growth inhibition measured after 4 days

O=C1CCC(N2Cc3c(CCCCCNC(=O)[C@@H]4NC5(CCCCC5)[C@@]5(C(=O)Nc6cc(Cl)ccc65)[C@H]4c4cccc(Cl)c4F)cccc3C2=O)C(=O)N1 (stereo partly specified)
pIC50 [1]: 8.70 | pIC50 [2]: 8.51 | pIC50 [3]: 6.38 | pIC50 [4]: 6.02 | pIC50 [5]: 5.68 | pIC50 [6]: 6.21 | pIC50 [7]: 5.86 | pIC50 [8]: 5.67 | pIC50 [9]: 7.02 | pIC50 [10]: 6.68 | pIC50 [11]: 6.30 | pIC50 [12]: 6.77 | pIC50 [13]: 6.40 | pIC50 [14]: 6.01

O=C1CCC(N2Cc3c(CCCCCNC(=O)c4ccc(NC(=O)[C@@H]5NC6(CCCCC6)[C@@]6(C(=O)Nc7cc(Cl)ccc76)[C@H]5c5cccc(Cl)c5F)cc4)cccc3C2=O)C(=O)N1 (stereo partly specified)
pIC50 [15]: < 5.00 | pIC50 [16]: < 5.00 | pIC50 [1]: 8.26 | pIC50 [2]: < 5.00

CNC(=O)[C@@H]1NC2(CCCCC2)[C@@]2(C(=O)Nc3cc(Cl)ccc32)[C@H]1c1cccc(Cl)c1F [US8629141, 21]
pIC50 [15]: < 5.00 | pIC50 [16]: < 5.00 | pIC50 [2]: < 5.00
